Measured values from patent US11612572B2, “Treatment of schizophrenia using beta-caryophyllene and CB2 receptor agonists” (priority 2012, dated 2023).
pKi: −log10 of the molar value. Entries after “also recorded” stand apart in the source; their conditions may differ.

Legend:
GAD67 = assay: Expression level of GAD67 in brain tissue; type: in vivo, mice; settings: PCP vs control; for GAD67 protein level: 2 weeks old; for GAD67 mRNA level: 9 days old
Description: Expression Level of GAD67 in Mice at 9 Days Old (mRNA) or 2 Weeks Old (Protein)
Brain tissue of control mice and mice treated with PCP were analyzed for GAD67, a neurochemical marker for schizophrenia (FIG. 9A-F).

[1] = tested on: mouse model of schizophrenia; assay: Behavior in the Phenotyper cage; type: in vivo, mice; settings: Study II
[2] = tested on: mouse model of schizophrenia; assay: Prepulse inhibition (PPI) of the startle reflex; settings: Study I, age 8 weeks
[3] = tested on: mouse model of schizophrenia; assay: Open-field test (ambulation/crossing, rearing, grooming)
CB1 receptor = assay: Expression level of CB1 receptor in brain tissue; type: in vivo; settings: PCP-treated vs control mice, 9 days old
Description: (§1) Expression Level of CB1 and CB2 Receptor in Mice at 9 Days Old (mRNA) or 2 Weeks Old (Protein)
(§2) Brain tissue of control mice (saline treated) and mice treated with PCP were analyzed in the left and right cortex and brain stem (FIGS. 7A-I; FIG. 8. Results from the cortex and brain stem were reported by the Inventors in 2011 (Anavi-Goffer et al).

[4] = tested on: mouse model of schizophrenia; assay: Elevated Plus Maze test; settings: Study I, age 13 weeks
MGL = assay: Expression of MGL in brain tissue; type: in vivo; settings: PCP vs control, 2 week old mice
Description: Expression of MGL in 2 Week Old Mice

[5] = Body weight of mice in the neonatal PCP model
CB2 receptor = assay: Expression level of CB2 receptor in brain tissue; type: in vivo, mice; settings: for mRNA expression of CB2 receptor: PCP-treated vs control mice, 9 days old
Description: as §1, §2

cannabinoid receptor CB2 [6] = molecular target: T1, cannabinoid receptor CB2 (Homo sapiens, UniProt P34972); settings: cited from earlier work
cannabinoid receptor CB2 [7] = molecular target: T1, cannabinoid receptor CB2; settings: at CB2; cited from earlier work
[8] = Study III: male mice, PND 17, PCP 5 mg/kg, 1 h later BCP 10 mg/kg or BCP+AM630 10 mg/kg each, DMSO-based vehicle

T1 sequence (P34972 whole entry): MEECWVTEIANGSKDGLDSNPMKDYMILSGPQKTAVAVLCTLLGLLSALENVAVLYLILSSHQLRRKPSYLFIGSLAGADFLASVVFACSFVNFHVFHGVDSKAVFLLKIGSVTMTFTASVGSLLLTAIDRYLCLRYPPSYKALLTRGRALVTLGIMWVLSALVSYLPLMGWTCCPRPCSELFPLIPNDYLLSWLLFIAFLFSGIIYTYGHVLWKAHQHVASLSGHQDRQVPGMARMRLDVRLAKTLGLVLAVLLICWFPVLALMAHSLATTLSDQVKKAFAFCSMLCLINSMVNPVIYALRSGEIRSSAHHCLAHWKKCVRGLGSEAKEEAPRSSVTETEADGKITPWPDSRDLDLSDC

c1ccc(C2(N3CCCCC3)CCCCC2)cc1 [PCP, Phencyclidine, reference compound]
GAD67 protein level (GAD67; brain stem, Western blotting (FIG. 9C)): non-significant reduction | GAD67 protein level (GAD67; left cortex (FIG. 9A)): significantly decreased | GAD67 protein level (GAD67; right cortex (FIG. 9B)): did not reach a significant level | GAD67 mRNA level (GAD67; brain stem (FIG. 9F)): increased | GAD67 mRNA level (GAD67; left cortex (FIG. 9D)): no change was found at the mRNA level | GAD67 mRNA level (GAD67; right cortex (FIG. 9E)): no change was seen in the mRNA level | frequency of entries to the wheel ([1]; PND 91, females and males): reduced the frequency of entries to the wheel | time spent in the Hidden Zone ([1]; PND 91, females and males): increased the time spend at the Hidden Zone | frequency of entries to the hidden zone ([1]; PND 91, males (FIG. 20D)): appeared to reduce the frequency of entries to the Hidden Zone in males | frequency of entries to the hidden zone ([1]; PND 105): increased the frequency of entries to the Hidden Zone | % inhibition (ability to adjust to sound stimulus, PPI) ([2]; females (FIG. 5D)): No significant difference | % inhibition (ability to adjust to sound stimulus, PPI) ([2]; males (FIG. 5B)): significant reduction in their ability to adjust to sound stimulus | rearing ([3]; Study I, ethanol-based vehicle, PND 17 (FIG. 2B)): significantly inhibited both ambulation and rearing behaviors | ambulation (exploration) ([3]; Study I: PCP 5 mg/kg, BCP 10 mg/kg, ethanol-based vehicle, PND 17 (FIG. 2A)): significantly inhibited both ambulation and rearing behaviors | ambulation ([3]; Study I, PND 17, females): more sensitive to the effect of PCP | rearing behavior ([3]; Study I, PND 17, females): more sensitive to the effect of PCP | locomotor activity ([3]; Study I, PND 17, males): appeared to be less sensitive to the treatment of PCP or PCP+BCP | rearing and exploration behaviors ([3]; Study I, PND 35-37, females (FIGS. 4E, 4F)): no differences in rearing and exploration behaviors were seen between the different groups | locomotor activity ([3]; Study I, PND 35-37, males (FIG. 4C)): significantly increased the locomotor activity compared with vehicle treatment | ambulation ([3]; Study II: PCP 5 mg/kg, PND 16 (FIG. 13B)): significantly inhibited | rearing ([3]; Study II: PCP 5 mg/kg, PND 16 (FIG. 13C)): significantly inhibited | ambulation [3, 8]: significantly inhibited both ambulation and rearing behaviors | rearing [3, 8]: significantly inhibited both ambulation and rearing behaviors | mRNA expression of CB1 receptor (CB1 receptor; brain stem): significant increase | mRNA expression of CB1 receptor (CB1 receptor; left or right cortex): No significant increase | time spent in the distal end of the opened arm (anxiety) ([4]; females (FIGS. 6E, 6G)): reduced the time spent in the distal end of the opened arm; also recorded: induced anxiety in female mice | time spent in the distal end of the opened arm (anxiety) ([4]; males (FIGS. 6F, 6H)): increased the time spent in the distal end of the opened arm; also recorded: anxiolytic effect in male mice | protein level of MGL (MGL; Western blotting (FIG. 10C)): reduction in protein level of MGL | mRNA levels of MGL (MGL; left cortex (FIG. 10A)): decreased | body weight ([5]; Study I, ethanol-based vehicle, PND 7 / first week of life (FIG. 1B)): induced a significant reduction in body weight | body weight ([5]; Study I: PCP 5 mg/kg PND 3-16, BCP 10 mg/kg 1 h after PCP, ethanol-based vehicle, each day of injection PND 3-17 (FIG. 1A)): significantly reduce the body weight | body weight ([5]; Study I, PND 17 (FIG. 2C)): still significant | body weight ([5]; Study I, PND 35-37, males (FIG. 4A)): no significant difference in male body weight between the groups | body weight ([5]; Study II: PCP 5 mg/kg, days 3, 5, 7, 10, 12, 15 and 17, male and female (FIG. 13A)): significantly reduced body weight | body weight ([5]; Study II, PND 63 (FIG. 14B)): no significant difference in the body weight between vehicle-treated mice and PCP-treated mice | mRNA expression of CB2 receptor (CB2 receptor; brain stem): significant increase | mRNA expression of CB2 receptor (CB2 receptor; left cortex): significant increase | mRNA expression of CB2 receptor (CB2 receptor; right cortex): no difference between control and PCP-treated mice | CB2 receptor expression level (CB2 receptor; following administration of PCP, different brain areas): selectively down-regulated in different brain areas | putative CB2 receptor expression (CB2 receptor; mice neonatally treated with phencyclidine, right cortex and basal ganglia/diencephalon): up-regulation

COc1ccc(C(=O)c2c(C)n(CCN3CCOCC3)c3cc(I)ccc23)cc1 [AM630, 6-Iodopravadoline, reference compound]
open-field behaviors compared with PCP-treated mice ([3]; Study III: PCP+BCP+AM630 group, male mice, PND 17): not significantly different from these of PCP-treated mice | ambulation [3, 8]: reversed the effects of BCP on ambulation and rearing behaviors; also recorded: reversed the effect of BCP on PCP-induced inhibition of ambulation and rearing | rearing [3, 8]: reversed the effects of BCP on ambulation and rearing behaviors; also recorded: reversed the effect of BCP on PCP-induced inhibition of ambulation and rearing | activity at CB2 receptor (cannabinoid receptor CB2 [6]): potent and selective inverse agonist | pKi (cannabinoid receptor CB2 [7]): 7.49
